Activity calls are given as the source filed them. The calls are words filed in the database; no cut-off is given here.

By inhibition is commonly meant how much of the control response was suppressed. The Ki is the equilibrium dissociation constant of an inhibitor or competing ligand from its target. Lower therefore signals tighter binding.

In assay [1] the target is T1, Protein O-GlcNAcase (Homo sapiens) (UniProt O60502).
T1 sequence (whole entry): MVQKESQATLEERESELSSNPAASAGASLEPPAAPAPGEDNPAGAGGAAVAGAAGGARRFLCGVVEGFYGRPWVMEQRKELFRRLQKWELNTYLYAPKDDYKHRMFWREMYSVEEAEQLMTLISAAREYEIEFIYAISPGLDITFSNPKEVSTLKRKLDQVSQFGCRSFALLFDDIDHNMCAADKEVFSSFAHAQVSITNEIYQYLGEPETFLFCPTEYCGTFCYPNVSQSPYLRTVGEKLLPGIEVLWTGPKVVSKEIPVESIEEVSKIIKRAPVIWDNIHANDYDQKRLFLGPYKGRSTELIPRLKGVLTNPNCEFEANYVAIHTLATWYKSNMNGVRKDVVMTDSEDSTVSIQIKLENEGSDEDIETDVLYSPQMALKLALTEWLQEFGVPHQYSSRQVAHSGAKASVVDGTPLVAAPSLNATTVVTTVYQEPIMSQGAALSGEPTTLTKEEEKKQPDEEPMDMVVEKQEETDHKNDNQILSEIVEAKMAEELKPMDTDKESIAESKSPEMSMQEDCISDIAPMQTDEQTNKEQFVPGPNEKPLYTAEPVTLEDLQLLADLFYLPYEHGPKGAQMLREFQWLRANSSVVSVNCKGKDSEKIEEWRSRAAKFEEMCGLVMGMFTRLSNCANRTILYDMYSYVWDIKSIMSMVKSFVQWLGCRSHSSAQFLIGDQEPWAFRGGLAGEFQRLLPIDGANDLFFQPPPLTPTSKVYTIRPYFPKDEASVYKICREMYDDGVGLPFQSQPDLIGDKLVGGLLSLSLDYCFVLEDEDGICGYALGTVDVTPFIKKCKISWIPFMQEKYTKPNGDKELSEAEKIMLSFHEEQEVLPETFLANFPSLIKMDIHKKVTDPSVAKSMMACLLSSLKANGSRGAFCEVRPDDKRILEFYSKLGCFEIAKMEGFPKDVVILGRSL
The assay is described as follows: Inhibition of human OGA at 100 uM.

Assay [2] has as its target T1, Protein O-GlcNAcase (Homo sapiens). The assay is described as follows: Inhibition of OGA in human SH-SY5Y cells assessed as increase in protein O-GlcNAcylation level at 10 uM after 24 hrs by Western blot analysis. Format: cell-based. (Immunoblotting shows a protein as a band on a membrane.)
Assay [3] has the same target. The experiment in a line: Inhibition of OGA in human SH-SY5Y cells assessed as increase in protein O-GlcNAcylation level after 24 hrs by Western blot analysis. Format: cell-based.
Another assay deals with T2, Protein O-GlcNAcase (Homo sapiens, UniProt O60502).
T2 sequence (O60502 whole entry): T1 sequence (whole entry)
The assay is described as follows: Competitive inhibition of human OGA using 4-MU-GlcNAc as substrate after 10 mins by Lineweaver Burk plot analysis.

Assay [4] deals with T3, Beta-hexosaminidase subunit alpha (Homo sapiens, UniProt P06865).
T3 sequence (P06865 whole entry): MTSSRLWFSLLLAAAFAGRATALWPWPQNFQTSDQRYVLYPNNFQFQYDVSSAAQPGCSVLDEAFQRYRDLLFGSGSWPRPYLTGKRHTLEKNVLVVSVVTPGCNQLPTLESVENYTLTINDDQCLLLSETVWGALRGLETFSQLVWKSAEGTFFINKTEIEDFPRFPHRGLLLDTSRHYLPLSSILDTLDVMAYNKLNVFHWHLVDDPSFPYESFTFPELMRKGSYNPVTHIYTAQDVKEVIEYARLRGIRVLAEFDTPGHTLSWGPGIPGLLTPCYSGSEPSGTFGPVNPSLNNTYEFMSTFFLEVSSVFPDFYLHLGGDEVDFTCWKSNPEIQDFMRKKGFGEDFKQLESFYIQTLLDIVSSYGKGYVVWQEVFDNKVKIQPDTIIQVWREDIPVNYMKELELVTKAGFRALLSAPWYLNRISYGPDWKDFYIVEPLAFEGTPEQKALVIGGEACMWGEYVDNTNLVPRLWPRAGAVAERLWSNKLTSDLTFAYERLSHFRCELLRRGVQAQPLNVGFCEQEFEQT
The assay is described as follows: Inhibition of human Hex A using 4-MU-GlcNAc as substrate after 10 mins by Lineweaver Burk plot analysis.

`OC[C@@H]1[C@@H](O)[C@H](O)[C@@H](O)c2nccn21` displayed an inhibition in assay [1] of 6.2%.

Consider `OC[C@@H]1[C@@H](O)[C@H](O)[C@@H](O)c2nc(CCc3ccc(F)cc3)cn21`, for which, in assay [1], the inhibition is 26.1%. `Cc1ccc(CCc2cn3c(n2)[C@H](O)[C@@H](O)[C@H](O)[C@H]3CO)cc1`: the inhibition in assay [1] was found to be 28.3%.

Regarding `OC[C@@H]1[C@@H](O)[C@H](O)[C@@H](O)c2nc(CCc3ccc(-c4ccccc4)cc3)cn21`, the inhibition in assay [1] is 84.8%; in assay [3] it was “Dose-dependent effect”. The inhibition result in assay [2] is “Active”. In addition, the figures for the Ki (at Protein O-GlcNAcase; in assay [4]) were 5.9 µM and 163 µM, respectively. In assay [1], `CCCCCCCCc1cn2c(n1)[C@H](O)[C@@H](O)[C@H](O)[C@H]2CO` showed an inhibition of 15.3%. Same read-out and setting: in the case of `O=C(CCc1cn2c(n1)[C@H](O)[C@@H](O)[C@H](O)[C@H]2CO)Nc1ccccc1` it was 17.1%; in that of `CC(C)(CCc1cn2c(n1)[C@H](O)[C@@H](O)[C@H](O)[C@H]2CO)C(=O)Nc1ccccc1`, 2.2%; in that of `OC[C@@H]1[C@@H](O)[C@H](O)[C@@H](O)c2nc(CCc3ccccc3)cn21`, 6.8%. The molecule `OC[C@@H]1[C@@H](O)[C@H](O)[C@@H](O)c2nc(CCc3ccc(C4CCCCC4)cc3)cn21` came in with an inhibition in assay [1] of 56.6%. As to `CC(C)(C)CCc1cn2c(n1)[C@H](O)[C@@H](O)[C@H](O)[C@H]2CO`, the inhibition in assay [1] was determined as 0.4%. Consider `COc1ccc(CCc2cn3c(n2)[C@H](O)[C@@H](O)[C@H](O)[C@H]3CO)cc1`, for which the inhibition in assay [1] is 54.1%.

(Values after ChEMBL document CHEMBL2157966, “Elevation of cellular O-GlcNAcylation level by a potent and selective O-GlcNAcase inhibitor based on tetrahydroimidazopyridine scaffold” (Bioorg Med Chem Lett, 2012).)
